Test results: patent publication US20230381142A1, “ANTILEISHMANIAL COMPOUNDS, COMPOSITIONS AND USE THEREOF” (TRUSTEES OF BOSTON UNIVERSITY, priority 2022, published 2023)
≈ marks a conversion by molar mass, not a printed value. Read-outs that look alike come from different tables or passages of the source.

Columns and labels:
[1] = Kinetic aqueous solubility by CLND; assay type: physicochemical; details: kinetic from dmso stock, high-throughput CLND
Description: Solubility of compounds using ChemiLuminescent Nitrogen Detection (CLND) was measured as described. Solubility of compounds using Charged Aerosol Detection (CAD) was measured as described. Solubility of solid compounds in Fasted Simulated Intestinal Fluid (FaSSIF) was measured as described.

[2] = test system: L. donovani promastigotes (strain 1S/Cl2D); experiment: Promastigote assay, CellTiter-Glo (Assay Conditions F); assay type: cell-based; details: Leishmania donovani; read-out: Extracellular promastigote EC50
Description: (§1) Assay Conditions F: Leishmania promastigotes (L. major: strain LV39; L. donovani, strain 1S/Cl2D) were maintained as previously described in PloS Negl Trop Dis (2015) 9(3):e0003588 and Pathogens (2021) 10(5):593) at 28° C. in M199 media supplemented with glutamine, adenosine, folic acid, hemin, HEPES, 10% Fetal Bovine Serum (Sigma-Aldrich, cat. no. F2442) and 1% Penicillin-Streptomycin (Gibco, cat. no. 15140122). For the promastigote assay, we followed the method previously described in PloS Negl Trop Dis (2011) 5(7):e1253. Briefly, promastigotes were incubated with the compounds for 72 h at 27° C., then lysed by adding 50 μL of CellTiter-Glo (Promega) and placed on an orbital shaker for 5 min at room temperature. After lysis, the resulting ATP-bioluminescence was measured using the Analyst HT plate reader (Molecular Devices).

[3] = test system: L. major promastigotes (strain LV39); experiment: as above; assay type: cell-based; details: Leishmania major; read-out: Extracellular promastigote EC50
Description: as §1

[4] = test system: HepG2 cells; experiment: HepG2 cytotoxicity; assay type: cell-based; details: Homo sapiens; toxicity against HepG2 cells
[5] = test system: host THP-1 macrophages; experiment: GSK inMac assay, host cell toxicity readout (LD MAC); assay type: cell-based, human
Method in brief: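 MAC EC50 reflects THP-1 host cell counts, measured within GSK's inMac L. donovani infection assay that also scores intracellular amastigotes and infected-cell percentage.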

[6] = test system: L. major (strain LV39) intracellular amastigotes infecting THP-1 cells; experiment: High content intracellular amastigote assay in THP-1 cells (Assay Conditions B); assay type: cell-based, Leishmania major; details: Leishmania major; THP-1 host cells
Description: Assay Conditions B: THP-1 cells (human acute monocytic leukemia cell line—ATCC TIB202) were grown in RPMI supplemented with 10% Fetal Bovine Serum (FBS) and 50 μM 2-mercaptoethanol at 37° C. in 5% CO2. THP-1 were seeded in microwell plates at 5×10^5 cells/mL density and treated with 0.1 μM phorbol myristate acetate (PMA, Sigma) at 37° C. for 48 h for differentiation into adherent, non-dividing macrophages. After activation by PMA, cells were washed and incubated with complete RPMI medium containing stationary phase Leishmania promastigotes (L. major: strain LV39; L. donovani, strain 1S/Cl2D) at a 1:15 parasite-cell ratio. Compounds were added and incubated at 37° C. for 72 h. Cells were then washed with phosphate-buffered saline (PBS), fixed for 30 minutes with 4% formaldehyde, rinsed again with PBS, stained for 2 h with 4′,6′-diamidino-2-phenylindole (DAPI 300 nM) and finally washed with PBS. In a collaborative effort to identify new antileishmanial chemotypes with minimal host cell cytotoxicity, compounds from the Boston University Center for Molecular Discovery (BUCMD) screening collection were assessed in a phenotypic, high content primary screen at the University of California's Center for Discovery and Innovation in Parasitic Diseases (CDIPD) for the ability to inhibit growth of L. donovani intracellular amastigotes infecting THP-1 cells. […] Dose-response testing in L. donovani (both intracellular amastigotes and promastigotes) confirmed concentration-dependent growth inhibition of both morphologies of the parasite at low micromolar EC50 values for both compounds (Table 1).

[7] = molecular target: human serum albumin (Homo sapiens, UniProt P02768); experiment: Human serum albumin (HSA) binding, chromatographic; assay type: in vitro ADME
Description: The percentage of compound bound to human serum albumin was measured using a chromatographic method as described. Briefly, each compound was assayed on an immobilized HSA column and gradient retention times measured, with chromatographic peak detection by UV. Each retention time was then converted to a % HSA bound value using a calibration set of compounds with a known % HSA binding.

[8] = Host THP-1 cell cytotoxicity in the CDIPD high content screen; assay type: cell-based, human; details: human
Method in brief: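 THP-1 cells differentiated with 0.1 μM PMA for 48 h, then infected with stationary-phase promastigotes (L. major LV39 or L. donovani 1S/Cl2D) at 1:15 parasite-cell ratio. Compounds applied for 72 h at 37° C. Cells formaldehyde-fixed, DAPI-stained, imaged to count amastigotes and host cells.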

[9] = Artificial membrane permeability (AMP); assay type: in vitro ADME; details: PAMPA, pH 7.4
Method in brief: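 Passive permeation through 1.8% phosphatidylcholine in 1% decane membrane, 50 mM phosphate buffer pH 7.4 on donor and receiver sides. After 45 min pre-shaking, compounds incubated 3 h at room temperature with shaking, in duplicate; donor and receiver solutions quantified by LC/MS.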

[10] = test system: L. donovani intracellular amastigotes infecting THP-1 macrophages; experiment: GSK intramacrophage L. donovani assay (LD AMMAC, inMac; Assay Conditions C); assay type: cell-based; details: Leishmania donovani
Method in brief: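 EC50 values come from counting amastigotes per infected THP-1 macrophage (AMMAC). Parallel read-outs give percentage of infected cells per well (INFCELL) and a macrophage-number toxicity EC50 (MAC).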

[11] = Property forecast index (PFI = ChromLogD7.4 + aromatic rings); assay type: physicochemical
[12] = Homo sapiens, THP-1, cytotoxicity against host THP-1 macrophages
[13] = growth inhibition of L. donovani intracellular amastigotes infecting THP-1 macrophages, read-out: LD AMMAC EC50

Sequence of human serum albumin (P02768 25-609): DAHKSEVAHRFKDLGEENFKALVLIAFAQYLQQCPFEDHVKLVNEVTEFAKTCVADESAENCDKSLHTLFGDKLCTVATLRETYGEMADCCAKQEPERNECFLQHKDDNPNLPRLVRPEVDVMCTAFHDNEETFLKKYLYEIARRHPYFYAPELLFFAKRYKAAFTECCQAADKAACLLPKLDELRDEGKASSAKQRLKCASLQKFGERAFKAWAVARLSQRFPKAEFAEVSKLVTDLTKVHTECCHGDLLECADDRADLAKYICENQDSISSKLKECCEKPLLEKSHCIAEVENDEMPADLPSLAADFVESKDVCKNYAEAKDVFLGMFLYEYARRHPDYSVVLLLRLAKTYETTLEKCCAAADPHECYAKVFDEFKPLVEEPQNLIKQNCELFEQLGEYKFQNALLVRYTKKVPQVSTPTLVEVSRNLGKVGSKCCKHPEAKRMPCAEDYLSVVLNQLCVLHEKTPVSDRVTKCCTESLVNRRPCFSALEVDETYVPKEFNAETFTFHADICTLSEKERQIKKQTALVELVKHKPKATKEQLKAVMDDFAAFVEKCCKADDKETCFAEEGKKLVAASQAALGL

Row | SMILES | solubility ([1]; aqueous medium) [µM] | EC50 [2] [µM] | EC50 [3] [µM] | EC50 [4] [µM] | EC50 [5, 12] [µM] | EC50 ([5]; cytotoxicity against host THP-1 macrophages, listed as rac-1) [µM] | EC50 [6] [µM] | HSA Binding [7] [%] | CC50 at 72 h [8] [µM] | Papp at 3 h [9] [×10⁻⁶ cm/s] | IC50 ([10]; THP-1) [µM] | EC50 ([10]; THP-1, GSK lead selection criteria, read-out: Antiparasitic activity EC50, L. donovani amastigotes) [µM] | EC50 [10, 13] [µM] | PFI [11] | solubility ([1]; aqueous medium (not further specified)) [µM]
1 | COc1ccc(N2C(=O)c3[nH]nc(CC(C)C)c3C2c2ccc(F)cc2)cc1 (racemic) [Compound 1, 4-(4-fluorophenyl)-3-isobutyl-5-(4-methoxyphenyl)-4,5-dihydropyrrolo[3,4-c]pyrazol-6(1H)-one] | 107 (≈ 40.6 µg/mL) | 2 | 4.4 | 63.1 | 15.8 | 15.9 | 1.3 | 96.4 | > 20 | 34.5 | 2.5 | 2.5 | 2.5 | 8.4 | 
2 | COc1ccc(N2C(=O)c3[nH]nc(CC(C)C)c3C2c2ccccc2)cc1 (centres unmarked) [Compound 2] |  | 2.4 | 4.2 | 79.4 | 31.6 |  | 1.7 | 95.8 | > 20 | 37 | 3.2 |  | 3.2 | 8.4 | 90 (≈ 32.5 µg/mL)
